# In article PMC11240878, “Synthesis, enzyme inhibition assay, and molecular modeling study of novel pyrazolines linked to 4-methylsulfonylphenyl scaffold: antitumor activity and cell cycle analysis” (RSC Advances, 2024):
# Tests used:
# CCRF-CEM = assay: NCI single-dose GI%, leukemia; type: cell-based, human; details: 10.0 μM in one dose
# RPMI-8226 = assay: NCI single-dose GI%, leukemia; type: cell-based, human; details: RPMI-8226, leukemia; 10.0 μM in one dose
# SR = assay: NCI single-dose GI%, leukemia; type: cell-based, human; details: 10.0 μM in one dose
# NCI-H226 = assay: NCI single-dose GI%, NSC lung; type: cell-based, human; details: 10.0 μM in one dose
# NCI-H23 = assay: NCI single-dose GI%, NSC lung; type: cell-based, human; details: 10.0 μM in one dose
# NCI-H322M = assay: NCI single-dose GI%, NSC lung; type: cell-based, human; details: 10.0 μM in one dose
# NCI-H460 = assay: NCI single-dose GI%, NSC lung; type: cell-based, human; details: 10.0 μM in one dose
# COLO 205 = assay: NCI single-dose GI%, colon; type: cell-based, human; details: COLO 205, colon; 10.0 μM in one dose
# HCT-116 = assay: NCI single-dose GI%, colon; type: cell-based, human; details: HCT-116, colon; 10.0 μM in one dose
# HCT-15 = assay: NCI single-dose GI%, colon; type: cell-based, human; details: HCT-15, colon; 10.0 μM in one dose
# KM12 = assay: NCI single-dose GI%, colon; type: cell-based, human; details: 10.0 μM in one dose
# SF-268 = assay: NCI single-dose GI%, CNS; type: cell-based, human; details: SF-268, CNS; 10.0 μM in one dose
# SF-295 = assay: NCI single-dose GI%, CNS; type: cell-based, human; details: SF-295, CNS; 10.0 μM in one dose
# SNB-19 = assay: NCI single-dose GI%, CNS; type: cell-based, human; details: SNB-19, CNS; 10.0 μM in one dose
# LOX IMVI = assay: NCI single-dose GI%, melanoma; type: cell-based, human; details: 10.0 μM in one dose
# MALME-3M = assay: NCI single-dose GI%, melanoma; type: cell-based, human; details: 10.0 μM in one dose
# M14 = assay: NCI single-dose GI%, melanoma; type: cell-based, human; details: 10.0 μM in one dose
# SK-MEL-2 = assay: NCI single-dose GI%, melanoma; type: cell-based, human; details: SK-MEL-2, melanoma; 10.0 μM in one dose
# SK-MEL-28 = assay: NCI single-dose GI%, melanoma; type: cell-based, human; details: SK-MEL-28, melanoma; 10.0 μM in one dose
# SK-MEL-5 = assay: NCI single-dose GI%, melanoma; type: cell-based, human; details: SK-MEL-5, melanoma; 10.0 μM in one dose
# UACC-62 = assay: NCI single-dose GI%, melanoma; type: cell-based, human; details: UACC-62, melanoma; 10.0 μM in one dose
# IGROV1 = assay: NCI single-dose GI%, ovarian; type: cell-based, human; details: 10.0 μM in one dose
# OVCAR-3 = assay: NCI single-dose GI%, ovarian; type: cell-based, human; details: OVCAR-3, ovarian; 10.0 μM in one dose
# OVCAR-4 = assay: NCI single-dose GI%, ovarian; type: cell-based, human; details: OVCAR-4, ovarian; 10.0 μM in one dose
# OVCAR-8 = assay: NCI single-dose GI%, ovarian; type: cell-based, human; details: OVCAR-8, ovarian; 10.0 μM in one dose
# NCI/ADR-RES = assay: NCI single-dose GI%, ovarian; type: cell-based, human; details: 10.0 μM in one dose
# SK-OV-3 = assay: NCI single-dose GI%, ovarian; type: cell-based, human; details: SK-OV-3, ovarian; 10.0 μM in one dose
# 786-0 = assay: NCI single-dose GI%, renal; type: cell-based, human; details: 786-0, renal; 10.0 μM in one dose
# ACHN = assay: NCI single-dose GI%, renal; type: cell-based, human; details: 10.0 μM in one dose
# RXF 393 = assay: NCI single-dose GI%, renal; type: cell-based, human; details: RXF 393, renal; 10.0 μM in one dose
# SN12C = assay: NCI single-dose GI%, renal; type: cell-based, human; details: 10.0 μM in one dose
# PC-3 = assay: NCI single-dose GI%, prostate; type: cell-based, human; details: PC-3, prostate; 10.0 μM in one dose
# DU-145 = assay: NCI single-dose GI%, prostate; type: cell-based, human; details: DU-145, prostate; 10.0 μM in one dose
# MDA-MB-231/ATCC = assay: NCI single-dose GI%, breast; type: cell-based, human; details: 10.0 μM in one dose
# MDA-MB-468 = assay: NCI single-dose GI%, breast; type: cell-based, human; details: MDA-MB-468, breast; 10.0 μM in one dose
# in vitro = details: human
# Procedure: (§1) A normal fibroblast-like fetal lung cell line (WI-38) was used to further investigate the therapeutic safety of the newly synthesized hybrids and evaluate their selective cytotoxicity toward normal and tumor cells.[33,77]
# (§2) The antitumor experiment was conducted on 59 human tumor cell lines derived from nine different human tissues, following the procedure of the Drug Evaluation Branch at the NCI, Bethesda, MD.[33]
# [1] = test system: WI-38 normal fibroblast cells; assay: in vitro; details: ratio of WI38 IC50 to cancer cell IC50 values
# Procedure: as §1, §2
# [2] = test system: breast adenocarcinoma MCF-7; details: human, 48 h
# EGFR = EGFR (Homo sapiens, UniProt P00533); assay: EGFR tyrosine kinase inhibition assay
# VEGFR2 = VEGFR2 (Homo sapiens, UniProt P35968); assay: VEGFR2 tyrosine kinase inhibition assay
# SNB-75 = assay: NCI single-dose GI%, CNS; type: cell-based, human; details: SNB-75, CNS; 10.0 μM in one dose
# MDA-MB-435 = assay: NCI single-dose GI%, melanoma; type: cell-based, human; details: MDA-MB-435, melanoma; 10.0 μM in one dose
# Chain of EGFR (P00533 25-1210): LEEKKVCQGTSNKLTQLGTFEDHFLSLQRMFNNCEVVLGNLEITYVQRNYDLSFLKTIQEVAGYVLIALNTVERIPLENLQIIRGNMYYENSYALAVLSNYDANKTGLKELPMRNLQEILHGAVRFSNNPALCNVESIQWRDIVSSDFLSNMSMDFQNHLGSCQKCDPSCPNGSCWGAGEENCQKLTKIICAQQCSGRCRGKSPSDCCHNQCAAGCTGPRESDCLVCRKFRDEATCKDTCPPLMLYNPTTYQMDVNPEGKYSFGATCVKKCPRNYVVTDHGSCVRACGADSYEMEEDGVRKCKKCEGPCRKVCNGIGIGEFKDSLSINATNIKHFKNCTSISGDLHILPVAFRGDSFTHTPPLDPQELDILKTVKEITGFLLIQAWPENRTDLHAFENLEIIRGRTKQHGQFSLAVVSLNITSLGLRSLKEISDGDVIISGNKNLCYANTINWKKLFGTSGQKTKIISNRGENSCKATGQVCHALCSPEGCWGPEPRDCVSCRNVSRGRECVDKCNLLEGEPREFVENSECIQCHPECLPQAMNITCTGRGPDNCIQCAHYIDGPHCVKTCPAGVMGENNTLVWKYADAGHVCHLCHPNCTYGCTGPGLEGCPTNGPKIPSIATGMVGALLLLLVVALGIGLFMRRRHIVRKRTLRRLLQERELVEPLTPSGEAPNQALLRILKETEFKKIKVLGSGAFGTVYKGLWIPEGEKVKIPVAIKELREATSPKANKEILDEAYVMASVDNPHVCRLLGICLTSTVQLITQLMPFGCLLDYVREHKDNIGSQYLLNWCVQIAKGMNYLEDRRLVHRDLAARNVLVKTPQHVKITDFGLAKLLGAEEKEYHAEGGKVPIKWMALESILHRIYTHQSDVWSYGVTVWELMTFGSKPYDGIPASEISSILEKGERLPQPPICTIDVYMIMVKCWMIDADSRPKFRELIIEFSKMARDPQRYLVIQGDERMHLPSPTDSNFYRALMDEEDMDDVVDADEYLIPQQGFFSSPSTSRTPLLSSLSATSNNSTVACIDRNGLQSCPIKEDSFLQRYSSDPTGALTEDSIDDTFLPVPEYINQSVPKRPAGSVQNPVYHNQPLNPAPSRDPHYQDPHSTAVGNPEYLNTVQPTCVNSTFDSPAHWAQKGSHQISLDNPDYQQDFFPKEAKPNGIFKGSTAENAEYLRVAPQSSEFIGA
# Chain of VEGFR2 (P35968 20-1356): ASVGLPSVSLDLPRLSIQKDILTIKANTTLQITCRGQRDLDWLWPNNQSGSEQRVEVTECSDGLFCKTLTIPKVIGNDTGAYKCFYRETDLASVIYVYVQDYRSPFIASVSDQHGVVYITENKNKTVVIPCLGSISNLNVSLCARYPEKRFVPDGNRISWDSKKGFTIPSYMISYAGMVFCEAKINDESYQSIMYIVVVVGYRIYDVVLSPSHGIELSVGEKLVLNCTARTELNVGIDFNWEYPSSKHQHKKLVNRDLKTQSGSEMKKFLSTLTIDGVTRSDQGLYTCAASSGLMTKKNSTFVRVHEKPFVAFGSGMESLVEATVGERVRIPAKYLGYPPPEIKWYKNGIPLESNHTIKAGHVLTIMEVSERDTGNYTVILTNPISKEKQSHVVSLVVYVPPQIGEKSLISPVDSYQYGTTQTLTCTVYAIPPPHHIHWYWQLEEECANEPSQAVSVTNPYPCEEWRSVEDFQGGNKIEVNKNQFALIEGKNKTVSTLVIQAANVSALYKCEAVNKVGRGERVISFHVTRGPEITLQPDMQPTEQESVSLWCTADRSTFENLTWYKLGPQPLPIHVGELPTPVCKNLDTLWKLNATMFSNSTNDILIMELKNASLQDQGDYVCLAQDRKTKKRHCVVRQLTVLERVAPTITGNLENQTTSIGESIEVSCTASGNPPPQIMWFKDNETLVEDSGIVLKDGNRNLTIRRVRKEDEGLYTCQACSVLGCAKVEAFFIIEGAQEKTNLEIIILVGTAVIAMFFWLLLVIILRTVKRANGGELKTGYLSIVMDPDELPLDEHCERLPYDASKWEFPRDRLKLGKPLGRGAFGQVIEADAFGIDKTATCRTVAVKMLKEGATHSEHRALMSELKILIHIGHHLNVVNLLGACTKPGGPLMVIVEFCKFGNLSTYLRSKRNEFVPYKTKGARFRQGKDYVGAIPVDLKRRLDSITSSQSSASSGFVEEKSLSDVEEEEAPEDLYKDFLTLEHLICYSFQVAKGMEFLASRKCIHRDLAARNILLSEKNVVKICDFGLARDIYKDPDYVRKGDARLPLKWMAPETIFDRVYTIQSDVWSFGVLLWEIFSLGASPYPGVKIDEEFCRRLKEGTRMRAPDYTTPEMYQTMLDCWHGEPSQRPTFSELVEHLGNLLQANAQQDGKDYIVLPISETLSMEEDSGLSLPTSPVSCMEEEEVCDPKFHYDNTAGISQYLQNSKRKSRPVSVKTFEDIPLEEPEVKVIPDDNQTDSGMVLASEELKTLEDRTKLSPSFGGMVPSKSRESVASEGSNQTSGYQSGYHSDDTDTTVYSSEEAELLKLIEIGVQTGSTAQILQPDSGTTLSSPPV
SMILES,GI% (RPMI-8226) [%],GI% (SR) [%],GI% (NCI-H23) [%],GI% (NCI-H322M) [%],GI% (NCI-H460) [%],GI% (COLO 205) [%],GI% (HCT-116) [%],GI% (HCT-15) [%],GI% (KM12) [%],GI% (SF-268) [%],GI% (SF-295) [%],GI% (SNB-19) [%],GI% (LOX IMVI) [%],GI% (MALME-3M) [%],GI% (SK-OV-3) [%],GI% (PC-3) [%],IC50 at 48 h (in vitro) [µM],"Mean tumor selectivity index (WI38/HL60, MCF7, and MDA-MB-231) [1]",IC50 (EGFR) [nM],IC50 (VEGFR2) [nM],other results
"CS(=O)(=O)c1ccc(C(=O)N2N=C(c3ccccc3)CC2c2ccccc2O)cc1 (stereo not drawn) [Compound 18h, (5-(2-Hydroxyphenyl)-3-phenyl-4,5-dihydro-1H-pyrazol-1-yl)(4-(methylsulfonyl)phenyl)methanone]",16,30,12,48,54,20,35,56,21,39,23,17,34,21,25,21,40.9 ± 1.81,4.51,574 ± 19,135 ± 9,GI% (CCRF-CEM): 41%; GI% (NCI-H226): 15%; GI% (M14): 29%; GI% (SK-MEL-2): 28%; GI% (SK-MEL-28): 11%; GI% (SK-MEL-5): 38%; GI% (UACC-62): 12%; GI% (IGROV1): 28%; GI% (OVCAR-3): 35%; GI% (OVCAR-4): 22%; GI% (OVCAR-8): 41%; GI% (NCI/ADR-RES): 22%; GI% (786-0): 33%; GI% (ACHN): 25%; GI% (RXF 393): 29%; GI% (SN12C): 17%; GI% (DU-145): 19%; GI% (MDA-MB-231/ATCC): 32%; GI% (MDA-MB-468): 17%; IC50 [2]: 12.5 ± 0.55 µM
"CS(=O)(=O)c1ccc(C(=O)N2N=C(c3ccccc3)CC2c2ccc(F)cc2)cc1 (stereo not drawn) [Compound 18c, (5-(4-Fluorophenyl)-3-phenyl-4,5-dihydro-1H-pyrazol-1-yl)(4-(methylsulfonyl)phenyl)methanone]",20,,,,,22,,,,,,,,,14,17,34.8 ± 1.54,3.02,1120 ± 37,218 ± 5,GI% (SNB-75): 14%; GI% (OVCAR-8): 20%
"Cc1ccc(C2=NN(C(=O)c3ccc(S(C)(=O)=O)cc3)C(c3ccc(C)cc3)C2)cc1 (stereo not drawn) [Compound 18g, (3,5-Bis(4-tolyl)-4,5-dihydro-1H-pyrazol-1-yl)(4-(methylsulfonyl)phenyl)methanone]",,50,12,12,17,33,37,45,37,11,30,13,16,14,26,33,26.2 ± 1.16,3.73,1020 ± 34,168 ± 3,GI% (SNB-75): 30%; GI% (M14): 32%; GI% (MDA-MB-435): 76%; GI% (SK-MEL-2): 33%; GI% (SK-MEL-28): 23%; GI% (SK-MEL-5): 38%; GI% (UACC-62): 36%; GI% (IGROV1): 23%; GI% (OVCAR-3): 24%; GI% (OVCAR-4): 22%; GI% (NCI/ADR-RES): 38%; GI% (786-0): 22%; GI% (ACHN): 12%; GI% (MDA-MB-231/ATCC): 14%; GI% (MDA-MB-468): 45%
